The values below come from patent US6906059B2, “Pharmaceutical composition with protective action against oxidative/toxic substances, especially cardiotoxic substances” (Solvay Pharmaceuticals, priority 1999, dated 2005).

Structures are written as SMILES.

Data set [1] has as its system rabbits with adriamycin-induced cardiomyopathy. The data set can be described thus: Reduction of adriamycin-induced cardiac remodelling processes in the rabbit heart (heart/body weight ratio, hydroxyproline content). The class given is in vivo. The following applies: for Ratio of heart weights to body weight: X ± SEM, n = 8. As to the method:
• A) The tests were carried out on rabbits of both sexes having an initial body weight of 2.1±0.2 kg. The animals were divided into 3 groups:
1. untreated animals (=control animals, n=20);
2. animals treated with adriamycin (+placebo instead of test substance, n=8);
3. animals treated with adriamycin and test substance (n=8). • The test substance used was (3S,2R′)-3-{1-[2′-(ethoxycarbonyl)-4′-phenyl-butyl]-cyclopentane-1-carbonylamino}-2,3,4,5-tetrahydro-2-oxo-1H-1-benzazepin-1-acetic acid, which is representative of the substances of Formula I usable according to the invention.
Groups 2 and 3 were administered 1 mg/kg adriamycin i.v. twice a week for 4 weeks. Group 3 of rabbits having adriamycin-induced cardiomyopathy was administered a daily oral dose of the test substance (30 mg/kg body weight) for 4 weeks, starting on the first day of adriamycin treatment, with their food. Once the 4 weeks had ended, the hearts were isolated and weighed. Then they were fixed with formalin for later biochemical investigations (hydroxyproline content of the heart tissue, measured with the HPLC amino acid analysis after Blankenship, D. T. et al., Aunal. Biochem. 178, 227-232, 1989 and Schuster, R., J. Chromatogr. 431, 271 -284, 1989). Both the increase in heart weight in relation to body weight and the hydroxyproline content in the heart tissue compared with normal values are indicators of remodelling processes taking place in the heart.

Data set [2] relates to rats with adriamycin-induced cardiomyopathy. The data set is described as follows: Inhibition of the pro-oxidative action of adriamycin in rats (plasma α-tocopherol, lipid peroxides, ferroxidase activity). In kind it is in vivo, male Wistar rats. The following applies: for Lipid peroxides (measured as malonic dialdehyde thiobarbituric acid adducts) in plasma / α-Tocopherol (Vitamin E) in plasma / Ferroxidase activity in plasma: X ± SEM. Here is the method:
The left-ventricular myocardial hydroxyproline concentration, which is a measurement of cardiac fibrous tissue growth, was less in the animals treated with test substance (group 3) than in the control animals treated with adriamycin (group 2). […] If the test substance was also administered in addition to adriamycin (group 3), the adriamycin-induced increase in the hydroxyproline content could be reduced by about 13% compared with animals treated with placebo (group 2). […] The animals were divided into 4 groups:
1. untreated animals (=control animals, n=19);
2. animals treated with adriamycin (+placebo instead of test substance, n=14);
3. animals treated with test substance (n=11);
4. animals treated with adriamycin and test substance (n=14).
The test substance used was (3S,2R′)-3-{1-[2′-(ethoxycarbonyl)-4′-phenyl-butyl]-cyclopentane-1-carbonylamino}-2,3,4,5-tetrahydro-2-oxo-1H-1-benzazepin-1-acetic acid, being representative of the substances of Formula I usable according to the invention.
The animals of groups 2 and 4 were administered 15 mg/kg adriamycin intraperitoneally over a period of two weeks. The animals of group 4 were administered 30 mg/kg of the test substance daily for two weeks with their food, starting with the first day of adriamycin treatment. The animals of group 3 were likewise administered 30 mg/kg of the test substance daily for two weeks with their food (but without adriamycin).
Once the two-weeks' treatment had ended, the animals were anaesthetised with pentobarbital (50 mg/kg i.p.) and venous blood samples were taken, from which plasma was obtained. The concentration of lipid-peroxides and the ferroxidase activity in the plasma was measured using the methods of Wong, S. H. Y. et al., Clin. Chem. 33, 214-220, 1987 or Johnson, D. A. et al., Clin. Chem. 13, 142-150, 1967. Furthermore, the α-tocopherol concentration in the plasma was measured using the method of Catignani, G. L. and Bieri, J. G., Clin. Chem. 29, 708-712, 1983.

Where [3] appears, read: group 2 (adriamycin) v. group 1 (untreated).
[4] abbreviates: Group 2: adriamycin 15 mg/kg i.p. over two weeks + placebo, n = 14.
Setting [5] is: group 2 (adriamycin) v. group 1 (control).
Where [6] appears, read: adriamycin + test substance 30 mg/kg daily oral v. adriamycin + placebo, 4 weeks.
The mark [7] stands for this setting: Group 3: test substance 30 mg/kg daily with food for two weeks, no adriamycin, n = 11.
[8] abbreviates: Group 4: adriamycin 15 mg/kg i.p. + test substance 30 mg/kg daily, two weeks, n = 14.
The mark [9] stands for this setting: adriamycin + test substance v. adriamycin + placebo.
[10] abbreviates: group 4 v. group 2 (adriamycin + placebo).
Setting [11] is: test substance alone v. untreated.

`COc1cccc2c1C(=O)c1c(O)c3c(c(O)c1C2=O)C[C@@](O)(C(=O)CO)C[C@@H]3O[C@H]1C[C@H](N)[C@H](O)[C@H](C)O1` [adriamycin, reference compound]: the Ratio of heart weights to body weight in data set [1] (Group 2: adriamycin 1 mg/kg i.v. twice a week for 4 weeks + placebo) was 3.39 ± 0.13 g/kg. In addition, in data set [1] (setting [3]), the “Increase of heart/body weight ratio compared with untreated control group” value is on record as “about 69%” and the “Increase of myocardial hydroxyproline content compared with untreated control group” value is reported as “about 60%”. Further, in data set [2] (setting [4]), the “Lipid peroxides (measured as malonic dialdehyde thiobarbituric acid adducts) in plasma” value (“Lipid peroxides … in plasma” for short) was found to be 4.476 ± 0.404 µmol/L and the “α-Tocopherol (Vitamin E) in plasma” value turned out to be 338.2 ± 28.0 µg/dL. In data set [2] (setting [5]), the “Increase of concentration of lipid peroxides in the rat plasma” value is listed as “about 131%” and the “Increase of total activity of the ferroxidase in the rat plasma” value is given as “about 22%”.
For `CCOC(=O)[C@H](CCc1ccccc1)CC1(C(=O)N[C@H]2CCc3ccccc3N(CC(=O)O)C2=O)CCCC1` [test substance, (3S,2R′)-3-{1-[2′-(ethoxycarbonyl)-4′-phenyl-butyl]-cyclopentane-1-carbonylamino}-2,3,4,5-tetrahydro-2-oxo-1H-1-benzazepin-1-acetic acid], the Ratio of heart weights to body weight in data set [1] (Group 3: adriamycin 1 mg/kg i.v. twice a week + test substance 30 mg/kg daily oral, 4 weeks) worked out at 2.79 ± 0.08 g/kg. In data set [1] (setting [6]), the “% Effect of the test substance (group 3 v. 2) on hydroxyproline content of the heart” value is −13.3% and the “% Effect of the test substance (group 3 v. 2) on ratio of heart weights to body weight” value was −17.7%. In data set [1] (group 3 v. group 2 (placebo)), the “Reduction of the adriamycin-induced increase in the heart/body weight ratio” value is recorded as “about 18%” and the “Reduction of the adriamycin-induced increase in the hydroxyproline content” value is reported as “about 13%”. For the same compound, in data set [2] (setting [7]), the “Ferroxidase activity in plasma” value was 0.2545 ± 0.0104 IU/l, the “Lipid peroxides … in plasma” value amounted to 2.319 ± 0.086 µmol/L and the “α-Tocopherol (Vitamin E) in plasma” value amounted to 657.8 ± 21.0 µg/dL. Also, in data set [2] (setting [8]), the “Ferroxidase activity in plasma” value is listed as 0.2534 ± 0.0128^+ IU/l, the “Lipid peroxides … in plasma” value is 3.030 ± 0.235^+++ μmol/l and the “α-Tocopherol (Vitamin E) in plasma” value was found to be 407.9 ± 33.0 µg/dL. Also, in data set [2] (setting [9]), the “% Effect of the test substance on plasma ferroxidase activity, Group 4 v. 2” value is −23.0%; the “% Effect of the test substance on plasma lipid peroxides, Group 4 v. 2” value was −32.3%; the “% Effect of the test substance on plasma α-tocopherol, Group 4 v. 2” value is listed as “+20.6%”. The “Increase of α-tocopherol content in the plasma” value in data set [2] (group 3 (test substance) v. group 1 (control)) is recorded as “about 95%”. Moreover, the “Increase of α-tocopherol content in the plasma” value in data set [2] (group 4 (adriamycin + test substance) v. group 2 (adriamycin + placebo)) is recorded as “about 21%”. In addition, in data set [2] (setting [10]), the “Decrease of ferroxidase activity” value is given as 23% and the “Reduction of the adriamycin-induced increase in the concentration of lipid peroxides in the plasma” value is recorded as “about 32%”. Besides, in data set [2] (setting [11]), the “% Effect of the test substance on plasma ferroxidase activity, Group 3 v. 1” value was −5.7%; the “% Effect of the test substance on plasma lipid peroxides, Group 3 v. 1” value is given as “+19.6%”; the “% Effect of the test substance on plasma α-tocopherol, Group 3 v. 1” value is on record as “+95.2%”.
